Data from US20050181029A1, “Distributed drug dispensing matrix as a transdermal patch” (priority 2004, published 2005).

How the values were obtained:
Format in all cases: in vitro ADME, pig
[1] = Agar gel disc assembly on Franz diffusion cell, mannitol skin permeability; conditions: agar gel disks 16, 9, 5 and 3 mm, relative to 16 mm disk; 0.5% SLS in PBS; 24 hrs
Protocol: All experiments were performed using pig skin. Skin was harvested from pigs (15) and was stored at −70° C. until the time of experiments. Skin was thawed at room temperature just before using it for experiments. […] Agar Gel Disc Assembly: A third experimental system was used to assess the dependence of permeability on contact area. In this system, permeation of mannitol from gel disks was studied. For this purpose, agar gel disks were prepared by dissolving 0.5 gm agar (Becton Dickinson Microbiology Systems, Sparks, Md.) in 20 ml of 0.5% solution (w/v) SLS in PBS. 10 μCi/ml ^3H radiolabeled mannitol was added to the mixture. The mixture was heated until agar formed a viscous solution. The viscous mixture was allowed to settle into a gel by pouring it into a petri dish to form a circular disc of 3.5 mm thickness. Disks of various diameters (16, 9, 5, and 3 mm) were then cut using a punch. […] Receiver compartments were sampled over 24 hrs and concentration of radiolabeled mannitol in these samples was measured using a scintillation counter. Permeability was calculated for each reservoir size by dividing the total flux obtained by the number of reservoirs at that particular size. Enhancement factors were calculated by dividing the permeability obtained from a disk of a particular size with reference to permeability obtained from the largest disk (16 mm).

[2] = Polycarbonate/teflon array assembly, mannitol delivery across skin vs Franz diffusion cell; conditions: reservoir size approaching 2.5 mm vs single 8 mm (16 mm diameter Franz cell) reservoir; 10 μCi/mL 3H-mannitol in 0.5% SLS in PBS; 24 hours
Protocol: The present invention is a novel transdermal drug delivery patch with an array of spatially organized reservoirs. In order to verify the validity of our invention we used three different assemblies, simulating the proposed matrix patch, that in essence provide the same working principle. All experiments were performed using pig skin. Skin was harvested from pigs (15) and was stored at −70° C. until the time of experiments. Skin was thawed at room temperature just before using it for experiments. A brief discussion of the experimental system used for the three cases follows. I. Polycarbonate/Teflon Array Assembly: This assembly consists of two plates made of polycarbonate/teflon—a donor plate and a receiver plate. The top plate (donor plate) has through holes (wells) drilled in it, each of which acts as an isolated donor chamber. The bottom plate (receiver plate) also has holes (wells) drilled in the same pattern as the donor plate and simulates the receiver compartment. The skin is placed between the donor and receiver plate and the plate assembly is clamped using four screws. […] At the end of 24 hours samples were drawn from the receiver plate and analyzed in a liquid scintillation counter (Packard Tri-Carb 2100TR, Packard Instrument Company, Meriden, Conn.). […] The data was then analyzed to verify any effect of a distributed dispensing system on the amount of drug delivered across the skin. […]

[3] = Polymer (polyurethane) array assembly, mannitol skin permeability; conditions: polyurethane arrays, reservoirs 6 to 2 mm, relative to 6 mm reservoir; 0.5% SLS in PBS; 24 hrs; no clamping
Protocol: Polymer (Polyurethane) Array Assembly: Skin was placed in a PBS receiver fluid (10 ml) such that PBS contacted the skin on all sides and the bottom but not the top (FIG. 5). An array of liquid reservoirs was created by punching circular holes in a matrix pattern in a polyurethane slab (thickness=5 mm). These holes were separated from each other by one diameter. Such arrays were made for different size reservoirs (diameters in the range of 2-6 mm). The top surface of the skin was dried of any surface moisture. […]
Transdermal transport experiments were performed using mannitol as a model solute and sodium lauryl sulfate (SLS) as a model enhancer. […] Skin permeability in the skin exposed to reservoirs was calculated for each reservoir size by dividing the total amount delivered by the number of reservoirs, area of each reservoir, contact time, and mannitol concentration in each reservoir. Enhancement factors corresponding to various reservoir sizes were then calculated with reference to the permeability obtained from the largest reservoir (6 mm).
The enhancements are calculated with respect to the permeability obtained from a 6 mm reservoir.

[4] = Patches holding agar gel disc reservoir arrays at constant area fraction, mannitol delivery; conditions: 3 mm reservoir array (28 reservoirs) vs one 16 mm reservoir; area fraction ~20%; skin area 10.25 cm^2; identical formulation
Text: All enhancements are obtained by normalizing the amount delivered into the skin at any particular reservoir size to that delivered at 16 mm. Error bars correspond to one standard deviation (n=5).
To experimentally determine the enhancement obtained by reservoir arrays, we created patches holding reservoir arrays containing ^3H labeled mannitol as the model solute. These patches were created at varying reservoir sizes (16 mm, 9 mm, 5 mm and 3 mm). In these patches, the reservoirs were arranged in a square pattern with the center-to-center distance between two adjacent reservoirs set to twice the reservoir diameter. […] Keeping the area fraction the same for all the reservoir sizes (˜20%) drug reservoirs were placed on these skin pieces.

amount of mannitol delivered across the skin per unit area, normalized to single continuous reservoir [2]: exceeding 10 fold
amount of mannitol delivered per unit macroscopic area, array vs single large reservoir [4]: about 11 times
SMILES: OC[C@@H](O)[C@@H](O)[C@H](O)[C@H](O)CO [mannitol]
mannitol permeability enhancement for varying reservoir sizes [1]: significant increase in permeability is observed with a decrease in disk diameter
mannitol permeability enhancement as a function of reciprocal of reservoir size [3]: permeability enhancement increases with inverse reservoir size
